The values below come from PMC12040169 (PLOS Biology, 2025).

This series in a line: in vitro. To be noted: human, hela cells, % viability.

Turning to `Cn1ccnc1C1(O)CCN(C(=O)Nc2ccccc2F)CC1` [CBK282280], the viability (in general, a read-out of living cells in per cent, often relative to untreated cells) at 28.5 h, 10 µM came to 112%.

For `O=C(NCc1ccccc1)N1CCC(n2cnc3cccnc32)CC1` [CBK282281], the viability at 28.5 h, 10 µM was 100%. To `c1cnc2[nH]c([C@H]3CCCO3)c(CN3CCCCC3)c2c1` [CBK282284] belongs 87.7%; to `O=C(Cn1c([C@@H]2CCCO2)cc2cccnc21)N1CCCCC1` [CBK282286], 90.3%. Take `c1cnc2c(c1)cc([C@H]1CCCO1)n2CCN1CCCC1` [CBK282289]: the viability at 28.5 h, 10 µM was found to be 91.9%. With `CC(=O)Nc1ccc(CCC2(NC(=O)C3CC3)CCCCC2)cn1` [CBK282290] the figure was 87.4%; with `Cc1nc2cccnc2n1C1CCN(C(=O)NCc2ccccc2)CC1` [CBK282291], 87.5%; with `Cn1nc(-c2ccc(F)cc2)n(-c2ccncc2)c1=O` [CBK282294], 96.5%. For the compound `COc1ccc([C@@H](O)[C@H]2CCCNC2)cc1` [CBK282298], the viability at 28.5 h, 10 µM is 86.3%.

In the case of `C[C@]12CN(Cc3ccccc3)C[C@H]1NC(=O)c1ccccc1C2O` (stereo partly drawn) [CBK282302], the viability at 28.5 h, 10 µM amounted to 112%. In the case of `COCCCNC(=O)Cn1ccc2ccnc(-c3cccs3)c21` [CBK282303], the viability at 28.5 h, 10 µM stood at 109%.

On to `CCC(=O)N1CCC[C@@H]1Cn1nc(-c2cccs2)ccc1=O` [CBK282304], for which the viability at 28.5 h, 10 µM is 84.8%. To `C[C@@H](Cn1nnc2ccccc21)NC(=O)Cc1cccc(F)c1` [CBK282306] belongs 90.8%; to `Cc1[nH]ncc1C(=O)N1CCn2cc(C(F)(F)F)nc2C1` [CBK282307], 87.7%. With `C[C@@H](Cn1nnc2ccccc21)NC(=O)Cc1cccs1` [CBK282312] the figure was 92.8%. With `O=C1CCCN1CC(=O)N1CCCC1c1nc2ccccc2[nH]1` (stereo not drawn) [CBK282315] the figure was 86.3%; with `Cc1ccc(CCC(=O)N2CCCCC2c2nc3ccccc3[nH]2)o1` (stereo not drawn) [CBK282316], 85.7%; with `O=c1[nH]c(-c2ccccc2)nc2c1CN(Cc1ccc(F)cc1)CC2` [CBK282329], 93.3%. Regarding `O=c1[nH]c(-c2ccccc2)nc2c1CN(Cc1cccs1)CC2` [CBK282330], the viability at 28.5 h, 10 µM was 87.1%. To `Cn1c(=O)n(Cc2ccc(Cl)cc2)c2cccnc21` [CBK282333] belongs 101%; to `Cc1noc(C)c1C(=O)N1CCC(c2ccncc2)CC1` [CBK282334], 110%; to `CC(C)(C)C(=O)N1CCC(n2nc(-c3ccco3)ccc2=O)CC1` [CBK282341], 99.3%. With `CC(C)CC(=O)NCCn1nc(-c2cccs2)oc1=O` [CBK282342] the figure was 114%; with `O=C(NCCn1nc(-c2cccs2)oc1=O)C1CCCCC1` [CBK282343], 105%. `O=C(Cc1cccc(O)c1)N1CCCC1c1nc2ccccc2[nH]1` (stereo not drawn) [CBK282346]: the viability at 28.5 h, 10 µM came out at 91.9%. For `CC1CCc2c(sc3ncn(C4CCNCC4)c(=O)c23)C1` (stereo not drawn) [CBK282349], the viability at 28.5 h, 10 µM came to 91.4%. With `O=C(c1ccco1)N1CCC(n2nc(C3CC3)ccc2=O)CC1` [CBK282350] the figure was 109%.

On to `CCOCCCNC(=O)c1ncoc1-c1ccc(F)cc1` [CBK282353], for which the viability at 28.5 h, 10 µM is 92.6%.

As to `Cc1cc(C)n(CCNC(=O)c2ncoc2-c2ccc(F)cc2)n1` [CBK282356], the viability at 28.5 h, 10 µM stood at 83.2%.

For the compound `Cc1cc(C)n(CCCNC(=O)c2ncoc2-c2ccc(F)cc2)n1` [CBK282357], the viability at 28.5 h, 10 µM is 91.3%.

Regarding `O=C(c1ncoc1-c1ccc(F)cc1)N1CCOCC1` [CBK282362], the viability at 28.5 h, 10 µM stood at 87.1%. Regarding `Fc1cccc(-c2nc3cnccn3c2NCc2cccs2)c1` [CBK282363], the viability at 28.5 h, 10 µM turned out to be 97.5%. To `O=C1NC2=C(C(=O)N(CC3CCCO3)C2)C(c2cccc(F)c2)N1` (stereo not drawn) [CBK282364] belongs 86.1%; to `Cc1cc2nnn(C[C@@H](C)NC(=O)c3ccco3)c2cc1C` [CBK282366], 100%; to `CC(=O)N1CCC(n2c(C3CC3)nc3sc(C)c(C)c3c2=O)CC1` [CBK282369], 85.2%. With `CC(C)c1ccc(C(=O)N2CCC(n3cnc4cccnc43)CC2)cc1` [CBK282370] the figure was 82.3%; with `CC(C)NC(=O)C1CCCN(c2nc3ccccc3n2C)C1` (stereo not drawn) [CBK282373], 109%. To `O=C(C1CCCC1)N1CCCC1c1nc2ccccc2[nH]1` (stereo not drawn) [CBK282378] belongs 88.5%; to `O=C(c1ncoc1-c1ccc(F)cc1)N1CCSCC1` [CBK282380], 105%. Turning to `Cc1cc2ccccc2n2c(=O)n(Cc3cscn3)nc12` [CBK282381], the viability at 28.5 h, 10 µM was determined as 102%.

Consider `C#CCn1cc(CN2CCc3c(nc(C)[nH]c3=O)C2)c2ccccc21` [CBK282382], for which the viability at 28.5 h, 10 µM was 102%. To `Cc1nc2c(c(=O)[nH]1)CCN(CCC(C)c1ccccc1)C2` (stereo not drawn) [CBK282387] belongs 81%. To `CC1CCCC(C)N1C(=O)Cn1c(=O)n(C)c2ncccc21` (stereo not drawn) [CBK282389] belongs 107%; to `CCN(Cc1ccco1)C(=O)Cn1c(=O)n(C)c2ncccc21` [CBK282390], 99.3%. With `COc1cccc(Cn2c(=O)n(C)c3ncccc32)c1` [CBK282391] the figure was 81.1%; with `Cc1cc2c(o1)c1cnn(CC(=O)N(C(C)C)C(C)C)c(=O)c1n2C` [CBK282392], 83.2%. With `COc1ccccc1CCNC(=O)c1ncoc1-c1cccs1` [CBK282394], the viability at 28.5 h, 10 µM came to 76.4%. To `O=C(c1ncoc1-c1ccc(F)cc1)N1CCN2CCCCC2C1` (stereo not drawn) [CBK282400] belongs 96.2%; to `CC(NC(=O)c1ncoc1-c1ccccc1F)c1ccccn1` (stereo not drawn) [CBK282402], 91.4%; to `O=C(NCc1cccnc1)c1ncoc1-c1cccc(Cl)c1` [CBK282403], 85.4%.

`CC(=O)N1CCC(Cn2nc(-c3ccccc3)ccc2=O)CC1` [CBK282405]: the viability at 28.5 h, 10 µM was 109%. With `CC(=O)N1CCC(Cn2nc(-c3ccc(F)cc3)ccc2=O)CC1` [CBK282406] the figure was 101%. With `Cc1ccccc1-c1ocnc1C(=O)NCc1ccco1` [CBK282408], the viability at 28.5 h, 10 µM was 84.5%. To `O=C(c1ccc(F)cc1)[C@H]1CCCN(C(=O)c2cc(C3CC3)n[nH]2)C1` [CBK282410] belongs 99.6%.

In the case of `O=C(c1cccs1)[C@H]1CCCN(C(=O)c2cc(C3CC3)n[nH]2)C1` [CBK282411], the viability at 28.5 h, 10 µM is 85.3%. With `Cn1ccc(C(=O)N2CCC[C@H](C(=O)c3cccs3)C2)n1` [CBK282412] the figure was 98%; with `Cc1sc2nc(C)n(C3CCN(C(=O)C(C)C)CC3)c(=O)c2c1C` [CBK282414], 88.7%. As for `Cc1nc2c(c(=O)[nH]1)CN(Cc1ccc(Cl)cc1)CC2` [CBK282415], the viability at 28.5 h, 10 µM worked out at 84.5%. Consider `O=C(Nc1ccccc1-n1ccnc1)c1ncoc1-c1ccc(F)cc1` [CBK282417], for which the viability at 28.5 h, 10 µM is 94.1%. With `Cc1sc2nc(C)n(C3CCNCC3)c(=O)c2c1C` [CBK282421] the figure was 113%.
